Reference: patent US7846202B2, “Coated implantable medical device” (Cook Incorporated, priority 1995, dated 2010)

Assays:
[1] = In vitro release rate of bioactive material from beneath porous parylene layer; format: physicochemical; conditions: dexamethasone layer over heparin layer, compared with the material alone
Description: When the at least one layer 18 of bioactive material contains a relatively soluble material such as heparin, the at least one layer 18 preferably contains a total of from about 0.1 to about 4 mg of bioactive material per cm^2 of the gross surface area of the structure 12. This provides a release rate for the heparin (measured in vitro) which is desirably in the range of 0.1 to 0.5 mg/cm^2 per day, and preferably about 0.25 mg/cm^2 per day, under typical blood flows through vascular stents. It should be noted that the solubility of dexamethasone may be adjusted as desired, with or without the inclusion of heparin, by mixing it with one or more of its relatively more soluble derivatives, such as dexamethasone sodium phosphate.
For example, when the structure 12 of the device 10 is configured as a vascular stent, it is advantageous for the at least one layer 18 to contain relatively soluble heparin, and the second layer 22 to contain relatively less soluble dexamethasone. […] More particularly, when dexamethasone is disposed by itself beneath a porous parylene layer 20 dimensioned as disclosed above, its release rate is negligible; an adequate release rate is obtained only when the thickness of the porous layer 20 is reduced by a factor of ten or more. […]

[2] = In-vitro flow system perfusion of antibody-loaded stents (antibody remaining on stent); format: physicochemical; conditions: 10 ml/min, 1% BSA in PBS, after approximately 10 days perfusion
Description: In one example, device 10 is a stainless steel GR II™ stent in which the stainless steel base material 14 of structure 12 is coated with a polymer and, in particular, parylene. This adsorbent polymer layer 16 of parylene is approximately 230,000 Å thick. Bioactive material layer 18 of the antiplatelet GP IIb/IIIa antibody (AZ1) was passively loaded on adsorbent polymer layer 16. The polymer coated stainless steel stents were immersed for approximately 24 hours in a buffered aqueous solution of AZ1 antibody (1 mg/ml, pH=7.2) at 37° C. AZ1 is a monoclonal anti-rabbit platelet glycoprotein (GP) IIb/IIIa antibody.
In another example, c7E3 Fab as bioactive material layer 18 is attached to polymer coating layer 16. Bioactive material c7E3 Fab is a chimeric monoclonal antibody that acts upon the […] integrin on platelets to inhibit their aggregation. This antibody or receptor blocker may be used in humans intravenously to prevent thrombosis during coronary angioplasty. This receptor blocker is also known as ReoPro™ available from Eli Lilly, Indianapolis, Ind. Bioactive material layer 18 of the antiplatelet GP IIb/IIIa antibody (c7E3 Fab) was passively loaded on adsorbent polymer layer 16. […]

change of release rate in heparin/dexamethasone two-layer device [1] | Substance | fraction of loaded antibody remaining on the stent [2]
lowered | heparin | –
– | c7E3 Fab: chimeric monoclonal antibody that acts upon the […] integrin on platelets to inhibit their aggregation | approximately half
